Assay results taken from patent US12246082B2, “Efficient sunscreen compositions with diethylamino hydroxybenzoyl hexyl benzoate and butyl methoxydibenzoylmethane free of octocrylene” (BASF SE, priority 2019, dated 2025).
Counter-ions that a name gives are not always drawn. Blank lines part the entries; values can stand above or below the compound they belong to.

How the values were obtained:
[1] = stated in the description; cited from earlier work
[2] = Solubility measurements of UV filter in emollients; type: physicochemical; conditions: 25° C., seven days
Method: The vial is placed in a thermostated water bath (25° C.) and the blend is stirred for seven days. If the tested UV-filter is fully soluble, additional filter is added until precipitation is observed. After seven days, the sample is centrifuged for 30 minutes at 13000 rpm. If the supernatant is turbid, it is filtered through a 0.2 μm non steril Membrex 25 PET filter.

[3] = Measurement of interfacial tension (polarity index) of emollients; type: physicochemical; conditions: Tensimat Densimat TD2000
Excerpt: The term “polarity index” refers to non-polar or polar oils. Non-polar oils are mainly based on hydrocarbons and lack an electronegative element, such as oxygen. In contrast, polar oils contain heteroatoms that differ in electronegativity, which results in a dipole moment. However, such oils are still insoluble in water, i.e. hydrophob. The polarity index can be determined by measuring the interfacial tension between the respective oil and water.
Interfacial tension of the respective emollients as listed below was measured using a Tensimat Densimat TD2000.

SMILES: COc1ccc(C(=O)CC(=O)c2ccc(C(C)(C)C)cc2)cc1 [BMDBM, 1-(4-(1,1-dimethylethyl)phenyl)-3-(4-methoxyphenyl)propane-1,3-dione]
absorption maximum [1]: 357 nm

SMILES: CCCCCCOC(=O)c1ccccc1C(=O)c1ccc(N(CC)CC)cc1O [DHHB, hexyl 2-[4-(diethylamino)-2-hydroxybenzoyl]benzoate]
solubility ([2]; in C12-15 alkyl benzoate): 22%
solubility ([2]; in butylene glycol dicaprylate/dicaprate): 23%
solubility ([2]; in caprylic capric triglyceride): 14%
solubility ([2]; in cyclomethicone): <1%
solubility ([2]; in dibutyl adipate): 31%
solubility ([2]; in diisopropyl adipate): 21%
solubility ([2]; in diisopropyl sebacate): 41%
solubility ([2]; in hydrogenated polyisobutene): <1%
solubility ([2]; in mineral oil): <1%
solubility ([2]; in octyldodecanol): 2.5%
solubility ([2]; in phenethyl benzoate): 57%
solubility ([2]; in propylene glycol dicaprylate/dicaprate): 22%
solubility ([2]; in tributyl citrate): 29.4%
solubility ([2]; in triethyl citrate): 29%
absorption maximum [1]: 354 nm

SMILES: C[Si]1(C)O[Si](C)(C)O[Si](C)(C)O[Si](C)(C)O[Si](C)(C)O1 [cyclopentasiloxane]
polarity index [3]: 32 mN/m

SMILES: CCCCOC(=O)CCCCC(=O)OCCCC [dibutyl adipate]
polarity index [3]: 14 mN/m

SMILES: CCCCC(CC)COC(=O)c1ccc(Nc2nc(Nc3ccc(C(=O)NC(C)(C)C)cc3)nc(Nc3ccc(C(=O)OCC(CC)CCCC)cc3)n2)cc1 (centres unmarked) [diethylhexyl-butamidotriazone, 4,4′-[[6-[[4-[[(1,1-dimethylethyl)amino]carbonyl]phenyl]amino]-1,3,5-triazin-2,4-diyl]diimino]bis-benzoic acid-bis(2-ethylhexyl)ester]
absorption maximum [1]: 310 nm

SMILES: CCCCC(CC)COC(=O)/C=C/c1ccc(OC)cc1 (centres unmarked) [ethylhexyl methoxy cinnamate, 2-Ethylhexyl-(2E)-3-(4-methoxyphenyl)acrylate]
absorption maximum [1]: 310 nm

SMILES: CCCCCCCCCCC(CO)CCCCCCCC (centres unmarked) [octyldodecanol]
polarity index [3]: 25 mN/m

Now from value to compound:

polarity index [3]: 12 mN/m
SMILES: CC(C)OC(=O)CCCCC(=O)OC(C)C [diisopropyl adipate]

polarity index [3]: 19 mN/m
SMILES: CC(C)OC(=O)CCCCCCCCC(=O)OC(C)C [diisopropyl sebacate]

polarity index [3]: 19 mN/m
SMILES: O=C(OCCc1ccccc1)c1ccccc1 [phenethyl benzoate]

polarity index [3]: 10 mN/m
SMILES: CCCCOC(=O)CC(O)(CC(=O)OCCCC)C(=O)OCCCC [tributyl citrate]

polarity index [3]: 7 mN/m
SMILES: CCOC(=O)CC(O)(CC(=O)OCC)C(=O)OCC [triethyl citrate]
